Reference: ChEMBL document CHEMBL4145686, “Discovery of a Potent and Selective Steroidal Glucocorticoid Receptor Antagonist (ORIC-101)” (J Med Chem, 2018)

Columns and labels:
Progesterone receptor = biological target: T1, Progesterone receptor (Homo sapiens, UniProt P06401); experiment: Antagonist activity at human PR expressed in CHO-K1 cells assessed as reduction in progesterone-induced response incubated for 20 hrs by luciferase reporter gene assay; format: cell-based
T1 sequence (P06401 whole entry): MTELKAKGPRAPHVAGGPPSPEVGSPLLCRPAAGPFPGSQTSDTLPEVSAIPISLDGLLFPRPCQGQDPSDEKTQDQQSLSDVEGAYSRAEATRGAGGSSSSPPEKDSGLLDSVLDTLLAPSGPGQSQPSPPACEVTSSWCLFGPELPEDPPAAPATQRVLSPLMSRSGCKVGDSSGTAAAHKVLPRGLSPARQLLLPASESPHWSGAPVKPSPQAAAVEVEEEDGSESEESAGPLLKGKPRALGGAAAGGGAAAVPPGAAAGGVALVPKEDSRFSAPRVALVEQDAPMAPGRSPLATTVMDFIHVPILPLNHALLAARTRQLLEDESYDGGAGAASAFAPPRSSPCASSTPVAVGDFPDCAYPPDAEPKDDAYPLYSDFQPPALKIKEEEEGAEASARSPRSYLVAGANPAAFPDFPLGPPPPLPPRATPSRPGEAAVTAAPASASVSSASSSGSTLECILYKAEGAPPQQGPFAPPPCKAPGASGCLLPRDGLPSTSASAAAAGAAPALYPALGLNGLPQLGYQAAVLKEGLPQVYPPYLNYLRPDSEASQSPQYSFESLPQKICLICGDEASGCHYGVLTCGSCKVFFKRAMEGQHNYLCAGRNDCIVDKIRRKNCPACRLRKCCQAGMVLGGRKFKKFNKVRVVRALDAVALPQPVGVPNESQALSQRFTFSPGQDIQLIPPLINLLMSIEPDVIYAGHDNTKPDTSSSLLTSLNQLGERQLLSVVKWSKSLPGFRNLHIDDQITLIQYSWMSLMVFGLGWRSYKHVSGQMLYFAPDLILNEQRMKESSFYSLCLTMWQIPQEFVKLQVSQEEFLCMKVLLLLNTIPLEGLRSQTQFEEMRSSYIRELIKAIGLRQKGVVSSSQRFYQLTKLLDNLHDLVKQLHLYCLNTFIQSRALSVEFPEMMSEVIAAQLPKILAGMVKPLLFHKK

[1] = Cmax in rat at 5 mg/kg, po; format: ADME, organism-based; set-up: dose 5 mg/kg, route oral; details: in vivo
[2] = Cmax in mini pig at 10 mg/kg, po; format: ADME, organism-based, Sus scrofa; set-up: dose 10 mg/kg, route oral; details: in vivo
Estrogen receptor = biological target: T2, Estrogen receptor (Homo sapiens, UniProt P03372); experiment: Binding affinity to untagged human recombinant full length ERalpha expressed in insect cells up to 1 uM by Fluormone ES2 Green displacement based assay
T2 sequence (P03372 whole entry): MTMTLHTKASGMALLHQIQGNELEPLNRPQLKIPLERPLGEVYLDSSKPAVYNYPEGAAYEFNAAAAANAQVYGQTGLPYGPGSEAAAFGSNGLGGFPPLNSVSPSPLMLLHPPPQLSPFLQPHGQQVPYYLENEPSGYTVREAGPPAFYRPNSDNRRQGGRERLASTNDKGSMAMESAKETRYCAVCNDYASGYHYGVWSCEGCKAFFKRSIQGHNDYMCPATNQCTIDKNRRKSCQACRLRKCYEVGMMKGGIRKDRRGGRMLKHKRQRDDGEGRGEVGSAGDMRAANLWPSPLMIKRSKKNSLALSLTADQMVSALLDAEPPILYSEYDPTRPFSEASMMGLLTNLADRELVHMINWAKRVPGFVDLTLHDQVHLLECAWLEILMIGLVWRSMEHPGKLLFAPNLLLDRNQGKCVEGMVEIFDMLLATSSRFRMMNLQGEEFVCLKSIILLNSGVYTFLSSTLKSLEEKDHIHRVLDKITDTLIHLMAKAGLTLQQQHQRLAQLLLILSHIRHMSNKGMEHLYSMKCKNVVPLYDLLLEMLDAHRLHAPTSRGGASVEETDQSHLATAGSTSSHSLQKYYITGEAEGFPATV

[3] = Antagonist activity at GR in monkey PBMC assessed as reduction in dexamethasone-induced GILZ gene expression incubated for 6 hrs by RT-qPCR method; format: cell-based; details: Macaca mulatta
Glucocorticoid receptor = biological target: T3, Glucocorticoid receptor (Homo sapiens, UniProt P04150); experiment: Antagonist activity at human GR expressed in CHO-K1 cells assessed as reduction in dexamethasone-induced response incubated for 20 hrs by luciferase reporter gene assay; format: cell-based
T3 sequence (P04150 whole entry): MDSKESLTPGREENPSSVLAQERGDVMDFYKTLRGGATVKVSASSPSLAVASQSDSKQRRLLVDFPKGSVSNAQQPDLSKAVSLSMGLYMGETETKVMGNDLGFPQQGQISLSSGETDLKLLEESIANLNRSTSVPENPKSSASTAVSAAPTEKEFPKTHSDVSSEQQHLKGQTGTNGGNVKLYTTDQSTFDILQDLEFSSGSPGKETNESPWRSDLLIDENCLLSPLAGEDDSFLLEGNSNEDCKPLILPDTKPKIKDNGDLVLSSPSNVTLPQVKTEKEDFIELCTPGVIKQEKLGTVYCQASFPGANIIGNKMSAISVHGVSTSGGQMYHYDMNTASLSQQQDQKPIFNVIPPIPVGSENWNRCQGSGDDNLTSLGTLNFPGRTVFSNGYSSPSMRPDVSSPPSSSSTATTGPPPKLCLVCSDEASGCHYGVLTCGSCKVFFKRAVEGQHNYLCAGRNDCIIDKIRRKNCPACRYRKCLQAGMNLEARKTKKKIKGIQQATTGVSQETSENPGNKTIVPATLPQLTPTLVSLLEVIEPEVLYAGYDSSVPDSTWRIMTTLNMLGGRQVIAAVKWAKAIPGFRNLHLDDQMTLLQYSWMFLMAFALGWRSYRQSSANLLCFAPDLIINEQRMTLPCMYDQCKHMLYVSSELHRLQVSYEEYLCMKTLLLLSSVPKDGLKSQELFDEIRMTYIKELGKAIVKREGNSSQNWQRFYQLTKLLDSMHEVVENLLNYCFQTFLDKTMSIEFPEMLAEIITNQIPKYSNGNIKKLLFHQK

[4] = AUC in mouse at 5 mg/kg, po; format: ADME, organism-based; details: in vivo

CC(C)N(C)c1ccc([C@H]2C[C@@]3(C)[C@@H](CC[C@@]3(O)C#CC(C)(C)C)[C@@H]3CCC4=CC(=O)CC[C@@H]4[C@H]32)cc1
IC50 (Progesterone receptor): 21 nM
Cmax [1]: 149 ng/mL
Cmax [2]: 153 ng/mL
Activity (Estrogen receptor): Not Active
IC50 [3]: 14.9 nM
IC50 (Glucocorticoid receptor): 5.6 nM
AUC [4]: 644 ng·h/mL
